Measurements published in patent US8304443B2, “Indazole derivatives” (Asahi Kasei Pharma Corporation, priority 2008, dated 2012).
Where two headings read alike, the source gives them in different places.

Columns and labels:
[1] = target: T1, human α1A adrenergic receptor (Homo sapiens, UniProt P35348); experiment: Test example 4: human α1A adrenergic receptor agonist activity (Ca flux, Fura-2); assay type: cell-based; details: Test example 4, maximum response to norephinephrine taken as 100%; for Emax: read-out: α1A receptor I.A.
T1 construct: expressed in transfected cells; host or cells: HEK293 cells, pcDNA3.1(−), geneticin-selected
T1 sequence (P35348 1-466): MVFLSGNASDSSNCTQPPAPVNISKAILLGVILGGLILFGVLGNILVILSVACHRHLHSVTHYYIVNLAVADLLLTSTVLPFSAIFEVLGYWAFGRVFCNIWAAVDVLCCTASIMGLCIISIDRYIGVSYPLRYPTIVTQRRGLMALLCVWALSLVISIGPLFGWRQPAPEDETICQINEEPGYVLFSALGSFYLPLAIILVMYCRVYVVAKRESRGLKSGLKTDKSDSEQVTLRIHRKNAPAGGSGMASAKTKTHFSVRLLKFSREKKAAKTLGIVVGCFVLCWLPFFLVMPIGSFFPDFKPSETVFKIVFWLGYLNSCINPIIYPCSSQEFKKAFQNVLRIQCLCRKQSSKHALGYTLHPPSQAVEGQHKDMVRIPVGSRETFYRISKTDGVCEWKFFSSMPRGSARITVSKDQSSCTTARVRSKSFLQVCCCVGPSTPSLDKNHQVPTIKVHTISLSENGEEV
Procedure: Human α1A adrenergic receptor agonist activity is determined by using HEK293 cells transfected with pcDNA3.1(−) (Invitrogen) to which human α1A gene has been inserted. These cells are cultured in a DMEM medium containing 10% fetal bovine serum, 400 μg/mL geneticin (Gibco BRL), 100 U/ml penicillin and 100 μg/ml streptomycin. […] After carrying out the loading for 30 minutes in a CO2 incubator, excess Fura-2AM is removed by washing the cells twice with the assay buffer. The cells obtained after the centrifuge is prepared to 5×10^6 cells/ml by using the assay buffer, and aliquoted into a 96-well UV plate (manufactured by Corning Inc.) to give a cell plate (80 μl/well). […] After the measurement for about 30 seconds, 20 μl of the test sample from the sample plate is added to the cell plate and the measurement is continued for another 270 seconds. Ca flux caused by the test compound is obtained from the peak height difference between the maximum value of fluorescence intensity ratio at 340 nm and 380 nm after the addition of the test compound and the fluorescence intensity ratio before the addition of the test compound. Maximum response to norephinephrine as a positive control is taken as 100%, and the maximum response ratio of each test compound is obtained as Intrinsic Activity [I.A. (%)].

[2] = target: T2, human β3 adrenergic receptor (Homo sapiens, UniProt P13945); experiment: Test example 1-B: human β3 adrenergic receptor agonist activity (cAMP-Screen, 96-well); assay type: cell-based; details: for Emax: 0.5 h, read-out: β3 receptor I.A.; for EC50: CHO cells with human β3 gene, cAMP
T2 construct: used as a probe to obtain the full length human β3 gene from a human genomic library (Clonetech); expressed in transfected cells; host or cells: CHO (Chinese hamster ovary) cells, pcDNA3, geneticin-selected
T2 sequence (P13945 whole entry): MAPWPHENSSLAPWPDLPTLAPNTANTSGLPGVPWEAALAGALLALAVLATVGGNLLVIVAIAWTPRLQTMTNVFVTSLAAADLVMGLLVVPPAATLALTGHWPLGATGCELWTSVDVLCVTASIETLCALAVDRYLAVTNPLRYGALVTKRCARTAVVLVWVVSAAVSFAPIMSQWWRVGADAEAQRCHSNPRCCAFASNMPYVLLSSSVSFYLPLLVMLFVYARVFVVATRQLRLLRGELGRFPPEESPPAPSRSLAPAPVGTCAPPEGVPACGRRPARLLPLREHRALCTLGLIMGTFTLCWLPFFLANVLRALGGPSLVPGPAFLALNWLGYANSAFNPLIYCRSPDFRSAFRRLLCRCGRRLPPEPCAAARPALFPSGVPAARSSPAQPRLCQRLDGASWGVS
Procedure: Human β3 adrenergic receptor agonist activity is determined using CHO (Chinese hamster ovary) cells transfected with pcDNA3 (Invitrogen) to which human β3 gene has been inserted. […] This human β3 cDNA fragment is used as a probe to obtain the full length human β3 gene from a human genomic library (Clonetech). The above cells are cultured in a Ham's F-12 medium containing 10% fetal bovine serum and 400 μg/mL geneticin (Invitrogen). After seeding these cells into a 96-well plate (2×10^4 cells/well) and culturing them for about 20 hours, they are allowed to stand in a serum-free Ham's F-12 medium (80 μL) for 15 minutes. The test compound is first dissolved in DMSO, serially diluted with Ham's F-12 comprising 100 mmol/L HEPES and 1 mmol/L isobutylmethylxanthine, and then 20 μL of the solution is added to the cells. After the cells are cultured for 30 minutes, the medium is removed, followed by addition of assay/lysis buffer (0.1 ml) included in cAMP-Screen Kit (manufactured by Applied Biosystems). The cells are incubated for 30 minutes at 37° C. The resulting cell lysate is determined to cAMP quantitation by using cAMP-Screen kit described above.

[3] = target: T3, human β1 adrenergic receptor (Homo sapiens, UniProt P08588); experiment: Test example 2-B: human β1 adrenergic receptor agonist activity; assay type: cell-based; details: 0.5 h; read-out: β1 receptor I.A.
T3 construct: expressed in transfected cells; host or cells: CHO (Chinese hamster ovary) cells, pcDNA3
T3 sequence (P08588 whole entry): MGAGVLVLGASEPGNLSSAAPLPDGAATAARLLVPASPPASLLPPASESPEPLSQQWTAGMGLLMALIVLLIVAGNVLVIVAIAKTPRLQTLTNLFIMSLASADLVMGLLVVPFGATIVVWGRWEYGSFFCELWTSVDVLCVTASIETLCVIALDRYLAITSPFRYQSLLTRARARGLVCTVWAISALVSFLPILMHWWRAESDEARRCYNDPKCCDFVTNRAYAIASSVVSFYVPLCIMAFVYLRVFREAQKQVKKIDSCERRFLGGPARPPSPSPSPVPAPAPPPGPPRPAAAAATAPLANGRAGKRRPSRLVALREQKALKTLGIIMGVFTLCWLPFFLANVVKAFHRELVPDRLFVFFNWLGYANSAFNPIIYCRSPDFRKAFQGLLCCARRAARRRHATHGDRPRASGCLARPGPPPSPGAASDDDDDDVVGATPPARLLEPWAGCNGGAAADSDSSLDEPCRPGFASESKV

[4] = target: T4, human β2 adrenergic receptor (Homo sapiens, UniProt P07550); experiment: Test example 3-B: human β2 adrenergic receptor agonist activity; assay type: cell-based; details: read-out: β2 receptor I.A.
T4 construct: expressed in transfected cells; host or cells: CHO (Chinese hamster ovary) cells, pcDNA3
T4 sequence (P07550 whole entry): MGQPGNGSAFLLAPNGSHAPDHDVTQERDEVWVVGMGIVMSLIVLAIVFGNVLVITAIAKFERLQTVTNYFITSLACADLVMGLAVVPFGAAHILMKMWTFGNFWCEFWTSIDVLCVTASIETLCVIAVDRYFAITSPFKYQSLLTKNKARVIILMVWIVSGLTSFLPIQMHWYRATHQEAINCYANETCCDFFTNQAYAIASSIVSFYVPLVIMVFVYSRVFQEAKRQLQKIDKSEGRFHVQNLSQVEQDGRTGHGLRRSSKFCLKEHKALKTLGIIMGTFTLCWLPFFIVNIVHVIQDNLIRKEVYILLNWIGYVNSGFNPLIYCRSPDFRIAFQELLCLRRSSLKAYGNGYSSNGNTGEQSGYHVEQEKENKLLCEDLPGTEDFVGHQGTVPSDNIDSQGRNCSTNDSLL

[5] = test system: rat under pentobarbital anesthesia; experiment: Test example 9: effect on blood pressure and heart rate of a rat under pentobarbital anesthesia; assay type: in vivo; details: male SD rat, 3 mg/kg intravenous bolus; greatest change of mean blood pressure relative to before administration; mean ± standard deviation
Procedure: After measuring blood pressure and heart rate of a rat under pentobarbital anesthesia, an effect of intravenous bolus administration of a test compound on blood pressure and heart rate can be determined. To a male SD rat (Japan SLC Inc.), sodium pentobarbital (Tokyo Chemical Industry Co., Ltd.) is intraperitoneally administered for induction of anesthesia (50 mg/kg). As maintenance anesthetics, sodium pentobarbital is subcutaneously administered (25 mg/kg). Left femoral vein is exposed and stripped, and then a polyethylene tube SP10 (connected to a three-way stopcock via ¼ vein needle) which has been filled with physiological saline is inserted and left in the vein.
Left medial femoral region is cut to expose and strip the femoral artery, and then a polyethylene tube (SP31, connected to a three-way stopcock via 22 G injection needle by TERUMO Corporation) which has been filled with heparin physiological saline is inserted and connected to a pressure transducer. Blood pressure is measured from the pressure transducer by using a modified pressure amplifier (AP-641 G, Nihon Kohden Corporation). Heart rate is measured by using the Heart rate Counter (AT-601 g, Nihon Kohden Corporation) while having the pulse wave of the blood pressure as a trigger. The blood pressure, mean blood pressure and heart rate are transmitted to the data recorder for recordation. In addition, the mean blood pressure is recorded using a modified pressure amplifier (AP-641 G) according to the equation of {diastolic blood pressure+(systolic blood pressure−diastolic blood pressure)/3}.
Blood pressure and heart rate measurement is started, and after confirming that each value remains almost constant, the test compound (3 mg/kg) is administered to the left femoral vein for 30 seconds. Specifically, the test compound with 3 mg/mL concentration is bolus administered at the administration dose of 1 mL/kg. Relative value (%) at each time point compared to the mean blood pressure and the heart rate before the administration is obtained for each individual. […]

[6] = target: T2, human β3 adrenergic receptor; experiment: Test example 1-A: human β3 adrenergic receptor agonist activity (cAMP EIA, 24-well); assay type: cell-based; details: Table 3, maximum response to isoproterenol taken as 100%
Procedure: Human β3 adrenergic receptor agonist activity is determined using CHO (Chinese hamster ovary) cells transfected with pcDNA3 (Invitrogen) to which human β3 gene has been inserted. […] This human β3 cDNA fragment is used as a probe to obtain the full length human β3 gene from a human genomic library (Clonetech). The above cells are cultured in a Ham's F-12 medium containing 10% fetal bovine serum and 400 μg/mL geneticin (Invitrogen).

[7] = test system: urinary bladder smooth muscle isolated from common marmoset; experiment: Test example 7: relaxant activity on urinary bladder smooth muscle isolated from common marmoset; details: strips contracted by 40 mmol/L KCl, papaverine 10^−4 mol/L relaxation = 100%
Procedure: Specifically, a common marmoset (CLEA Japan, Inc.) is bled to exsanguinated death, and then the urinary bladder is taken out of the marmoset via laparotomy. […] A resting tension of 1 g is applied to the strips, which is then equilibrated for more than 30 minutes. […] The final concentration is 10^−9, 10^−8, 10^−7, 10^−8, 10^−5 and 10^−4 mol/L. Upon the completion of the relaxation response to the test compound at the highest concentration, papaverine with final concentration of 10^−4 mol/L is added and the maximum relaxation response is obtained for each strip. This relaxation response is taken as 100%, and the relaxation ratio (%) is obtained for the test compound at the concentrations of 10^−5 and 10^−4 mol/L.

Row | SMILES | Emax ([1]; Table 4) [%] | Emax [2] [%] | EC50 ([2]; Table 4, Test example 1-B) [nM] | Emax [3] [%] | Emax [4] [%] | Emax ([1]; Table 3) [%] | α1A receptor I.A. ([1]; Table 4) [%] | β3 receptor I.A. [6] [%] | β3 receptor I.A. ([2]; Table 4, Test example 1-B, maximum response to isoproterenol taken as 100%) [%] | increase in MBP (%) [5] [%] | relaxant activity (%) 10^−4 M ([7]; 10^−4 M) [%] | relaxant activity (%) 10^−5 M ([7]; 10^−5 M) [%]
1 | COC(C)c1n[nH]c2cc(OCCNC[C@H](O)c3cccc(NS(C)(=O)=O)c3)ccc12 (stereo partly drawn) [Example 3, N-(3-((R)-1-Hydroxy-2-(2-(3-(1-methoxyethyl)-indazol-6-yloxy)ethylamino)ethyl)phenyl)methanesulfonamide] | 15 | 60 | 45 | 4 | 5 |  |  |  |  | 2.3 ± 0.9 |  | 
2 | CS(=O)(=O)Nc1cc([C@@H](O)CNCCOc2ccc3c(C4CC4)n[nH]c3c2)ccc1F [Example 4, (R)—N-(5-(2-(2-(3-Cyclopropylindazol-6-yloxy)ethylamino)-1-hydroxyethyl)-2-fluorophenyl)methanesulfonamide] | 0 | 52 | 24 | 9 | 8 |  |  |  |  |  |  | 
3 | CS(=O)(=O)Nc1cc([C@@H](O)CNCCOc2ccc3c(C4CC4)n[nH]c3c2)ccc1Cl [Example 5, (R)—N-(2-Chloro-5-(2-(2-(3-cyclopropylindazol-6-yloxy)ethylamino)-1-hydroxyethyl)phenyl)methanesulfonamide] | 0 | 59 | 19 | 23 | 9 |  |  |  |  |  |  | 
4 | CS(=O)(=O)Nc1cc([C@@H](O)CNCCOc2ccc3c(C4CCC4)n[nH]c3c2)ccc1F [Example 6, (R)—N-(5-(2-(2-(3-Cyclobutylindazol-6-yloxy)ethylamino)-1-hydroxyethyl)-2-fluorophenyl)methanesulfonamide] | 0 | 41 | 54 |  |  |  |  |  |  |  |  | 
5 | CS(=O)(=O)Nc1cc([C@@H](O)CNCCOc2ccc3c(OC(F)F)n[nH]c3c2)ccc1F [Example 7, (R)—N-(5-(2-(2-(3-(Difluoromethoxy)-indazol-6-yloxy)ethylamino)-1-hydroxyethyl)-2-fluorophenyl)methanesulfonamide] | 5 | 51 | 584 |  |  |  |  |  |  |  |  | 

Now from value to molecule, other results behind:

Row | Emax ([1]; Table 4) [%] | Emax [2] [%] | EC50 ([2]; Table 4, Test example 1-B) [nM] | Emax [3] [%] | Emax [4] [%] | Emax ([1]; Table 3) [%] | α1A receptor I.A. ([1]; Table 4) [%] | β3 receptor I.A. [6] [%] | β3 receptor I.A. ([2]; Table 4, Test example 1-B, maximum response to isoproterenol taken as 100%) [%] | SMILES | increase in MBP (%) [5] [%] | relaxant activity (%) 10^−4 M ([7]; 10^−4 M) [%] | relaxant activity (%) 10^−5 M ([7]; 10^−5 M) [%]
6 | 0 | 70 | 29 | 34 | 10 |  |  |  |  | CS(=O)(=O)Nc1cc([C@@H](O)CNCCOc2ccc3c(C4CCC4)n[nH]c3c2)ccc1Cl [Example 8, (R)—N-(2-Chloro-5-(2-(2-(3-cyclobutylindazol-6-yloxy)ethylamino)-1-hydroxyethyl)phenyl)methanesulfonamide] |  |  | 
7 | 5 | 51 | 56 | 30 | 1 |  |  |  |  | CS(=O)(=O)Nc1cc([C@@H](O)CNCCOc2ccc3c(OC(F)F)n[nH]c3c2)ccc1Cl [Example 9, (R)—N-(2-Chloro-5-(2-(2-(3-(difluoromethoxy)-indazol-6-yloxy)ethylamino)-1-hydroxyethyl)phenyl)methanesulfonamide] |  |  | 
8 |  |  |  |  |  | 100 | 100 |  |  | NC[C@H](O)c1ccc(O)c(O)c1 [Norepinephrine, reference compound] |  |  | 
9 |  |  |  |  |  |  |  | 100 | 100 | CC(C)NCC(O)c1ccc(O)c(O)c1 (centres unmarked) [isoproterenol, reference compound] |  | 66.2 | 60.9
